In publication PMC6100582 (Molecules : A Journal of Synthetic Chemistry and Natural …, 2018):
In brackets after ≈: the same amount, converted by molar mass. Where two headings read alike, the source gives them in different places.

Tests used:
Yellow Fever Virus = test: microbe, parasite or virus in culture; type: cell-based; details: Vero
Para-Influenza-3 Virus = test: organism not typed; type: cell-based; details: Vero cells
[1] = tested on: Mycobacterium marinum CAMP 5644; test: Antimycobacterial susceptibility assay (MIC determination); type: cell-based; details: CAMP5644, 504 h
Experimental: The broth dilution micro-method in Middlebrook 7H9 medium (Difco, Lawrence, KS, USA) supplemented with ADC Enrichment (Becton, Dickinson and Comp.) was used to determine MIC as previously described. […] Bacterial inocula were prepared by transferring colonies from culture to sterile water. The cell density was adjusted to 0.5 McFarland units using a densitometer (Densi-La-Meter, LIAP, Riga, Latvia). The final inoculum was made by 1:1000 dilution of the suspension with sterile water. Drug-free controls, sterility controls and controls consisted of medium and DMSO (Sigma-Aldrich, St. Louis, MO, USA) alone were included. […] Ciprofloxacin (CIP), rifampicin (RIF) and isoniazid (INH) (Sigma-Aldrich, St. Louis, MO, USA) were used as the standards.

in vitro = details: African green monkey
[2] = tested on: Mycobacterium tuberculosis H37Ra; test: Antimycobacterial susceptibility assay (MIC determination); type: cell-based; details: 168 h, 7 days, 37 °C, alamarBlue
Experimental: At log phase growth, a culture sample (10 mL) was centrifuged at 15,000 rpm/20 min using a bench-top centrifuge (MPW-65R, MPW Med Instruments, Poland). Following removal of the supernatant, the pellet was washed in fresh Middlebrook 7H9GC broth and re-suspended in fresh, ODAC-supplemented MB (10 mL). The turbidity was adjusted to match McFarland standard No. 1 (3 × 10^8 CFU) with MB broth. A further 1:20 dilution of the culture was then performed in MB broth. The antimicrobial susceptibility of M. tuberculosis was investigated in a 96-well plate format. In these experiments, sterile deionised water (300 µl) was added to all outer-perimeter wells of the plates to minimize evaporation of the medium in the test wells during incubation. Each evaluated compound (100 µL) was incubated with M. tuberculosis (100 µl). Dilutions of each compound were prepared in duplicate. For all synthesized compounds, final concentrations ranged from 1000 μg/mL to 8 μg/mL. All compounds were dissolved in DMSO, and subsequent dilutions were made in supplemented MB. […] Following incubation, 10% of alamarBlue (Difco, Lawrence, KS, USA) was mixed into each well, and readings at 570 nm and 600 nm were taken, initially for background subtraction and subsequently after 24 h reincubation. […] For non-interfering compounds, a blue colour in the well was interpreted as the absence of growth, and a pink colour was scored as growth.

[3] = tested on: Staphylococcus aureus ATCC 6538; test: Antimicrobial susceptibility assay in vitro (MIC determination); type: cell-based; details: ATCC6538
[4] = tested on: Acinetobacter baumannii MFBF 10913; test: as above; type: cell-based; details: MFBF10913, serial microdilution, 18 h, 35 °C
Experimental: (§1) Stock solutions of the tested compounds were prepared in DMSO (10 mg/mL). […] The absorbance was recorded at 540 nm. As a positive quality control (susceptibility of strains) tetracycline hydrochloride (TC) (Sigma-Aldrich) was added into wells.

[5] = tested on: Bacillus cereus ATCC 11778; test: as above; type: cell-based; details: ATCC11778, serial microdilution, 18 h, 35 °C
Experimental: as §1

[6] = tested on: Bacillus subtilis ATCC 6633; test: as above; type: cell-based; details: ATCC6633, serial microdilution, 18 h, 35 °C
Experimental: as §1

[7] = tested on: Streptococcus pneumoniae MFBF 10373; test: as above; type: cell-based; details: MFBF10373, serial microdilution, 18 h, 35 °C
Experimental: as §1

[8] = tested on: Candida albicans ATCC 90028; test: In vitro antifungal susceptibility testing (MIC determination); type: cell-based; details: ATCC90028
Sindbis Virus = test: microbe, parasite or virus in culture; type: cell-based; details: Vero
[9] = tested on: Enterococcus faecalis ATCC 29212; test: Antimicrobial susceptibility assay in vitro (MIC determination); type: cell-based
MM.1S (multiple myeloma) = test: Antiproliferative screening (cytostatic activity); type: cell-based; details: Homo sapiens, MM1.S; 72 h, IncuCyte imaging; read-out: IC50 MM.1S
Experimental: (§2) All human tumor cell lines were acquired from the American Type Culture Collection (ATCC, Manassas, VA, USA), except for the DND-41 cell line which was purchased from the Deutsche Sammlung von Mikroorganismen und Zellkulturen (DSMZ Leibniz-Institut, Braunschweig, Germany) and the Hap1 cell line which was purchased from Horizon Discovery (Waterbeach, UK). […] All media were supplemented with 10% FBS (HyClone, GE Healthcare Life Sciences, USA). […] After overnight incubation, cells were treated with test compounds at four different concentrations ranging from 100 to 0.8 µM. […] Images were taken every 3 h, with one field image per well under 10× magnification. All compounds were tested with duplicate data points and averaged.

[10] = tested on: Z-138 (non-Hodgkin lymphoma); test: Antiproliferative screening (cytostatic activity); type: cell-based; details: Homo sapiens, Z-138; 72 h, IncuCyte imaging; read-out: IC50 Z-138
Experimental: as §2

[11] = tested on: HCT-116 (colorectal carcinoma); test: Antiproliferative screening (cytostatic activity); type: cell-based; details: Homo sapiens, HCT-116; 72 h, IncuCyte imaging; read-out: IC50 HCT-116
Experimental: as §2

[12] = tested on: NCI-H460 (lung carcinoma); test: Antiproliferative screening (cytostatic activity); type: cell-based; details: Homo sapiens, NCI-H460; 72 h, IncuCyte imaging; read-out: IC50 NCI-H460
Experimental: as §2

[13] = tested on: Capan-1 (pancreatic adenocarcinoma); test: Antiproliferative screening (cytostatic activity); type: cell-based; details: Homo sapiens, CAPAN-1; 72 h, IncuCyte imaging; read-out: IC50 Capan-1
Experimental: as §2

[14] = tested on: K-562 (chronic myeloid leukemia); test: Antiproliferative screening (cytostatic activity); type: cell-based; details: Homo sapiens, K562; 72 h, IncuCyte imaging; read-out: IC50 K-562
Experimental: as §2

Reovirus-1 = test: Antiviral activity in Vero cell cultures; type: cell-based; details: Vero cells
Coxsackie Virus B4 = test: Antiviral activity in Vero cell cultures; type: cell-based; details: Enterovirus B, B4, Vero cells
[15] = read-out: EC50 Yellow Fever Virus, MTS
[16] = MTS, read-out: EC50 Para-Influenza-3 Virus, MTS
[17] = Mycobacterium marinum CAMP 5644, 21 days, 28 °C, read-out: MIC
[18] = read-out: EC50 Sindbis Virus, MTS
[19] = Enterococcus faecalis, ATCC29212, 24 h
[20] = MTS, read-out: EC50 Reovirus-1, MTS
[21] = MTS, read-out: EC50 Coxsackie Virus B4, MTS
[22] = ATCC29212, Enterococcus faecalis ATCC 29212, broth dilution, 24 h, 37 °C, read-out: MIC
[23] = read-out: EC50 Yellow Fever Virus, Visual CPE Score
[24] = visual CPE score, read-out: EC50 Para-Influenza-3 Virus, Visual CPE Score
[25] = read-out: EC50 Sindbis Virus, Visual CPE Score
[26] = visual CPE score, read-out: EC50 Reovirus-1, Visual CPE Score
[27] = visual CPE score, read-out: EC50 Coxsackie Virus B4, Visual CPE Score

SMILES	EC50 (Yellow Fever Virus; [15]) [µM]	EC50 (Para-Influenza-3 Virus; [16]) [µM]	MIC [1, 17] [µg/mL]	CC50 (in vitro) [µg/mL]	MIC [2] [µg/mL]	MIC [3] [µg/mL]	MIC [4] [µg/mL]	MIC [5] [µg/mL]	MIC [6] [µg/mL]	MIC [7] [µg/mL]	MIC [8] [µg/mL]	EC50 (Sindbis Virus; [18]) [µM]	IC50 (MM.1S (multiple myeloma)) [µM]	IC50 [10] [µM]	IC50 [11] [µM]	IC50 [12] [µM]	IC50 [13] [µM]	IC50 [14] [µM]	EC50 (Reovirus-1; [20]) [µM]	EC50 (Coxsackie Virus B4; [21]) [µM]	also measured
COc1cc(NC(C)CCCNC(=O)/C=C/C(=O)Nc2cccc(F)c2)c2ncccc2c1 (stereo not shown) [Compound 4a, (2E)-N-(3-Fluorophenyl)-N′-{4-[(6-methoxyquinolin-8-yl)amino]pentyl}but-2-enediamide]	> 50	> 50	> 256	46.9 (≈ 104 µM)	128 (≈ 284 µM)	> 100	> 100	> 100	50 (≈ 111 µM)	> 100	> 100	> 50	13	8.4	22.3	15.5	16.9	31.2	> 50	> 50	MIC [9, 19]: 128 µg/mL (≈ 284 µM)
COc1cc(NC(C)CCCNC(=O)/C=C/C(=O)Nc2ccc(F)cc2)c2ncccc2c1 (stereo not shown) [Compound 4b, (2E)-N-(4-Fluorophenyl)-N′-{4-[(6-methoxyquinolin-8-yl)amino]pentyl}but-2-enediamide]	> 50	> 50	64 (≈ 142 µM)	> 50	32 (≈ 71 µM)	12.5 (≈ 27.7 µM)	25 (≈ 55.5 µM)	25 (≈ 55.5 µM)	25 (≈ 55.5 µM)	12.5 (≈ 27.7 µM)	> 100	> 50	> 100	> 100	> 100	29.1	50.5	70.5	> 50	> 50	MIC [9, 22]: 64 µg/mL (≈ 142 µM)
COc1cc(NC(C)CCCNC(=O)/C=C/C(=O)Nc2cccc(Cl)c2)c2ncccc2c1 (stereo not shown) [Compound 4c, (2E)-N-(3-Chlorophenyl)-N′-{4-[(6-methoxyquinolin-8-yl)amino]pentyl}but-2-enediamide]	> 50	> 50	–	> 50	128 (≈ 274 µM)	12.5 (≈ 26.8 µM)	25 (≈ 53.5 µM)	25 (≈ 53.5 µM)	50 (≈ 107 µM)	25 (≈ 53.5 µM)	> 100	3	> 100	46.5	73	43.7	69.9	> 100	3.8	> 50	EC50 (Yellow Fever Virus; [23]): > 50 µM; EC50 (Para-Influenza-3 Virus; [24]): > 50 µM; MIC ([1]; Mycobacterium marinum): 128 µg/mL (≈ 274 µM); EC50 (Sindbis Virus; [25]): > 50 µM; MIC [9, 22]: 256 µg/mL (≈ 548 µM); EC50 (Reovirus-1; [26]): > 50 µM; EC50 (Coxsackie Virus B4; [27]): > 50 µM
COc1cc(NC(C)CCCNC(=O)/C=C/C(=O)Nc2ccc(Cl)cc2)c2ncccc2c1 (stereo not shown) [Compound 4d, (2E)-N-(4-Chlorophenyl)-N′-{4-[(6-methoxyquinolin-8-yl)amino]pentyl}but-2-enediamide]	> 50	> 50	64 (≈ 137 µM)	> 50	128 (≈ 274 µM)	6.1 (≈ 13.1 µM)	12.5 (≈ 26.8 µM)	> 100	> 100	12.5 (≈ 26.8 µM)	12.5 (≈ 26.8 µM)	> 50	> 100	> 100	> 100	> 100	91.8	> 100	> 50	> 50	MIC [9, 22]: 64 µg/mL (≈ 137 µM)
COc1cc(NC(C)CCCNC(=O)/C=C/C(=O)Nc2cccc(C(F)(F)F)c2)c2ncccc2c1 (stereo not shown) [Compound 4e, (2E)-N′-{4-[(6-Methoxyquinolin-8-yl)amino]pentyl}-N-[3-(trifluoromethyl)phenyl]but-2-enediamide]	> 50	> 50	256 (≈ 511 µM)	> 50	128 (≈ 256 µM)	50 (≈ 99.9 µM)	25 (≈ 49.9 µM)	> 100	> 100	50 (≈ 99.9 µM)	> 100	5.3	> 100	68.4	> 100	34.2	56.5	71.2	3.1	3.1	EC50 (Yellow Fever Virus; [23]): > 50 µM; EC50 (Para-Influenza-3 Virus; [24]): > 50 µM; EC50 (Sindbis Virus; [25]): 4.2 µM; MIC [9, 19]: 128 µg/mL (≈ 256 µM); EC50 (Reovirus-1; [26]): > 50 µM; EC50 (Coxsackie Virus B4; [27]): 2.7 µM
COc1cc(NC(C)CCCNC(=O)/C=C/C(=O)Nc2ccc(C(F)(F)F)cc2)c2ncccc2c1 (stereo not shown) [Compound 4f, (2E)-N′-{4-[(6-Methoxyquinolin-8-yl)amino]pentyl}-N-[4-(trifluoromethyl)phenyl]but-2-enediamide]	> 50	> 50	64 (≈ 128 µM)	> 50	64 (≈ 128 µM)	50 (≈ 99.9 µM)	25 (≈ 49.9 µM)	> 100	> 100	50 (≈ 99.9 µM)	> 100	> 50	> 100	> 100	> 100	> 100	79.4	> 100	> 50	> 50	MIC [9, 22]: 64 µg/mL (≈ 128 µM)
